SMILES strings stand for the structures. Values joined by “and” are separate entries in the source; they are usually repeats but may differ in a detail not shown here. Equal entries are not always repeated. Active and inactive are the calls of the source. The rule behind the calls is not given here.

In one test the target is Prostaglandin E2 receptor EP2 subtype (Homo sapiens) (UniProt P43116). The experiment in a line: compounds shifting PGE2 potency at EP2 – cell-based, human EP2, PGE2 EC50 shift, dose response (AID 1421). As to conditions: EP2-expressing cells, PGE2 EC50 shift by compound.
Prostaglandin E2 receptor EP2 subtype (Homo sapiens), sequence (P43116 whole entry, looked up): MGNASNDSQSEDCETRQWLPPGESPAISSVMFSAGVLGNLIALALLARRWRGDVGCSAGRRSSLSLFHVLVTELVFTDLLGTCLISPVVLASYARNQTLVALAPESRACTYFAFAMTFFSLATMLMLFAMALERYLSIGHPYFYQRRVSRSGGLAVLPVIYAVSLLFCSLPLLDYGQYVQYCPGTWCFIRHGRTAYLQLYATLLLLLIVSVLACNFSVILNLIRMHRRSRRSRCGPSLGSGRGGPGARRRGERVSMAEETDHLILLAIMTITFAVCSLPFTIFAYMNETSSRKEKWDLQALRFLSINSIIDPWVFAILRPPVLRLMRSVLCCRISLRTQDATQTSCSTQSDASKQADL
Consider `CCOC(=O)C1=C(CN2CCc3ccccc32)NC(=O)NC1c1ccc(Cl)cc1` (stereo not drawn), for which the result was active. Still for that read-out and setting: the same measure for `Cc1nc2c(c(C)nn2-c2ccccc2)c(C)c1Cl`: “active”; for `CCSc1cc(N2CCOCC2)nc(-c2ccc(Cl)cc2)n1`: “active”. Turning to `O=C(O)c1ccc(-c2nc(-c3cccc(C(F)(F)F)c3)cs2)cc1`, the result was active. The same measure, in the same setting: the same measure for `O=C(Nc1ccccc1N1CCN(c2ccccc2)CC1)C12CC3CC(CC(C3)C1)C2`: “active”; for `CSc1ccccc1NC(=O)CN(C)Cc1cccc(Cl)c1`: “active”.

For the compound `COc1cc(-c2nc(-c3cccc(C)c3)no2)cc(OC)c1OC`, the outcome was active.

Staying with this test, now noted: EP2-expressing cells, PGE2 EC50 shift by compound; measured here: PGE2 EC50 at 6.7 uM compound.
Regarding `O=C(OCc1ccc(Cl)cc1)c1ccccc1C(=O)c1ccccc1`, the PGE2 EC50 with compound was 1.02 nM. In the case of `Nc1c(C(=O)NCc2ccccc2)c2nc3ccccc3nc2n1CCCN1CCOCC1`, the PGE2 EC50 with compound amounted to 1.09 nM. Regarding `Cc1sc(NC(=O)c2cccs2)c(C(=O)OC(C)C)c1C`, the PGE2 EC50 with compound came to 2.6 nM. Still for that read-out and setting: then `O=C(c1ccc(Cl)cc1)c1oc2ccccc2c1CS(=O)(=O)c1ccccc1`, with 2.88 nM. For `Cc1ccc(S(=O)(=O)c2c(C)nn(-c3ccccc3)c2OC(=O)c2ccco2)cc1`, the PGE2 EC50 with compound amounted to 0.71 nM. On the same count and under the same terms, then `CC(C)n1c2ccccc2c2nnc(SCC(=O)Nc3ccccc3C(=O)O)nc21`, with 2.65 nM. In the case of `CCOc1ccc(-n2nc3c(=S)[nH]nc(C)c3c2C)cc1`, the PGE2 EC50 with compound is 3.04 nM.

For the compound `CCOC(=O)C1=C(CN2CCc3ccccc32)NC(=O)NC1c1ccc(Cl)cc1` (stereo not drawn), the PGE2 EC50 with compound was 1.21 nM. As to `Cc1ccc(C2CC(c3cccs3)=NN2C(=O)c2ccc(Br)o2)cc1` (stereo not drawn), the PGE2 EC50 with compound worked out at 0.75 nM. Regarding `Cc1nc2c(c(C)nn2-c2ccccc2)c(C)c1Cl`, the PGE2 EC50 with compound was 0.69 nM. For `Cc1cccc(NCc2nc3ccccc3n2Cc2ccccc2)c1`, the PGE2 EC50 with compound came to 1.13 nM. With `CCSc1cc(N2CCOCC2)nc(-c2ccc(Cl)cc2)n1`, the PGE2 EC50 with compound is 0.69 nM. In the case of `CCOc1nc(C)cc(C)c1S(=O)(=O)c1ccc(Cl)cc1`, the PGE2 EC50 with compound was 1.56 nM. On the same count and under the same terms, the same measure for `COc1ccc(C2=NN(C(=O)c3cccs3)C(O)(C(F)(F)F)C2)cc1` (stereo not drawn): 3 nM; for `Cc1cc(C)cc(OC2CCCCC2NS(=O)(=O)c2ccccc2)c1` (stereo not drawn): 1.62 nM; for `Cc1cc(N)c2cc(NC(=O)Nc3ccc4nc(C)cc(N)c4c3)ccc2n1`: 2.6 nM.

As for `COc1ccc(CCN(Cc2nc(-c3ccccc3)no2)Cc2nc(-c3ccccc3)no2)cc1OC`, the PGE2 EC50 with compound worked out at 1.2 nM. Still for that read-out and setting: then `COc1cc2cc(Br)cc(Br)c2nc1C`, with 2.62 nM; and `C=CCSc1nc(N(CC)CC)c2sccc2n1`, with 0.98 nM; and `O=C(COc1cccc2ccccc12)N1c2ccccc2CCc2ccccc21`, with 1.19 nM. As to `CC(C)c1ccc(OCC(=O)NC(=S)Nc2ccc3c4c(cccc24)CC3)cc1`, the PGE2 EC50 with compound was found to be 3.13 nM. As for `CCOC(=O)c1c(/N=C/C2C(=O)CCCC2=O)sc2c1CCCC2`, the PGE2 EC50 with compound was determined as 1.32 nM. For the compound `Cc1ccc(N/C(C(Cl)=C(Cl)Cl)=C(/Cl)[N+](=O)[O-])c(C)c1`, the PGE2 EC50 with compound was 1.32 nM. On the same count and under the same terms, the same measure for `CCOc1ccccc1Cn1c(=O)oc2ccc(C)cc21`: 1.09 nM. Take `COc1ccc2c(-c3ccccc3)cc(N3CCOCC3)nc2c1`: the PGE2 EC50 with compound was found to be 0.74 nM. As for `CCc1c(-c2n[nH]c(=S)n2Cc2ccccc2)csc1C`, the PGE2 EC50 with compound amounted to 1.22 nM. Same read-out and setting: the same measure for `O=C(O)c1ccc(-c2nc(-c3cccc(C(F)(F)F)c3)cs2)cc1`: 1.19 nM; for `O=C(O)c1cc(C(=O)O)cc(N2C(=O)c3ccccc3C2=O)c1`: 0.83 nM.

Consider `O=C(COc1ccc(Br)cc1)Nc1ccc(-c2nnc(-c3ccco3)o2)cc1`, for which the PGE2 EC50 with compound came to 0.9 nM.

Turning to `COC(=O)c1c(NC(=O)Cc2cccs2)sc2c1CCC(C)C2` (stereo not drawn), the PGE2 EC50 with compound came to 0.94 nM. Still for that read-out and setting: then `Cc1ccc(C(=O)c2coc3ccc(OCC(=O)O)cc23)cc1`, with 2.78 nM; and `CCOC(=O)c1sc(NC(=O)C(CC)OC(=O)C(CC(C)C)NC(=O)c2ccccc2)nc1C` (stereo not drawn), with 1.22 nM. Still for that read-out and setting: then `S=c1[nH]nc(C23CC4CC(CC(C4)C2)C3)n1Cc1ccco1`, with 2.45 nM; and `O=C(Nc1ccccc1N1CCN(c2ccccc2)CC1)C12CC3CC(CC(C3)C1)C2`, with 2.52 nM. Same read-out and setting: the same measure for `C=CCn1c(=S)[nH]c2sccc2c1=O`: 1.53 nM. As to `CCOc1ccc(OCC)c(NC(=O)CN2CCN(c3cccc(C)c3)CC2)c1`, the PGE2 EC50 with compound was 1.02 nM.

Regarding `O=C(c1cccs1)c1cn(Cc2ccccc2Cl)c2ccccc12`, the PGE2 EC50 with compound was 2.63 nM. As for `CSc1ccccc1NC(=O)CN(C)Cc1cccc(Cl)c1`, the PGE2 EC50 with compound is 0.97 nM. Same read-out and setting: the same measure for `CCn1c2ccccc2c2cc(/C=N/n3c(C)nnc3C)ccc21`: 1.15 nM. The same measure, in the same setting: the same measure for `c1ccc(Cc2nc3ccccc3n2Cc2ccccc2)cc1`: 0.81 nM; for `O=C(Nc1ccccc1Br)c1ccccc1-c1ccccc1`: 2.5 nM; for `CC(C)c1nc(N2CCN(C(=O)c3ccccc3)CC2)c(C#N)c2c1COC(C)(C)C2`: 0.97 nM. The same measure, in the same setting: the same measure for `S=C1NCCc2ccc(Cl)cc2C1c1ccccc1` (stereo not drawn): 1.38 nM; for `COc1cc(-c2nc(-c3cccc(C)c3)no2)cc(OC)c1OC`: 1.14 nM. Consider `O=S(=O)(c1cccc(C(F)(F)F)c1)N1c2ccccc2-n2cccc2[C@H]1c1cccnc1`, for which the PGE2 EC50 with compound turned out to be 1.09 nM. Same read-out and setting: then `O=C(c1ccco1)N(CCC(c1ccccc1)c1ccco1)Cc1ccc(F)cc1` (stereo not drawn), with 1.11 nM; and `COc1ccc2c(C)cc(SCC(=O)Nc3ncc(Cl)cc3Cl)nc2c1`, with 1.52 nM. As to `CCc1ccc(Nc2oc(C)cc(=O)c2C(C)=O)cc1`, the PGE2 EC50 with compound stood at 1.55 nM.

Turning to `O=C(O)c1ccc(C(=O)O)c(C(=O)Nc2ccc3c(c2)Cc2ccccc2-3)c1`, the PGE2 EC50 with compound was 2.77 nM. Still for that read-out and setting: the same measure for `CCOC(=O)C1=NN(c2ccc(C)cc2)C2(S1)SC(C(C)=O)=C(C)N2c1ccccc1` (stereo not drawn): 0.31 nM; for `c1cncc(-c2nc(N3CCCCCC3)c3ccccc3n2)c1`: 0.91 nM; for `O=C(CSc1ncnc2c1oc1ccccc12)Nc1ccccc1F`: 1.86 nM.

As to `COc1ccccc1/C=C/C(=O)OCC(=O)Nc1ccccc1Sc1ccccc1`, the PGE2 EC50 with compound was 0.76 nM. With `O=c1c2cn[nH]c2nc(SCc2ccccc2F)n1-c1ccc(Br)cc1`, the PGE2 EC50 with compound was found to be 0.77 nM. Turning to `Cc1cc(C)c(S(=O)(=O)O)c(C)n1`, the PGE2 EC50 with compound came out at 1.25 nM. The same measure, in the same setting: then `CCCCCn1c(SCCC(C)C)nc2c1c(=O)[nH]c(=O)n2C`, with 1.21 nM; and `O=C(CSc1ncnc2c1oc1ccccc12)Nc1cccc(F)c1`, with 3.15 nM. Regarding `O=c1c2ccccc2c(-c2ccccc2)nn1-c1ccc(Cl)c(Cl)c1`, the PGE2 EC50 with compound worked out at 1.42 nM. Same read-out and setting: then `Cc1noc(C)c1CSc1nc2sc3c(c2c(=O)n1C)CCCC3`, with 1.46 nM; and `CCCCOC(=O)n1c(=S)oc2cc(Cl)ccc21`, with 0.85 nM; and `CCC(c1nnnn1Cc1ccco1)N(Cc1cc2cc(C)cc(C)c2[nH]c1=O)CC1CCCO1` (stereo not drawn), with 1.56 nM. On the same count and under the same terms, then `Cc1onc(-c2c(F)cccc2Cl)c1C(=O)OCn1nnc2ccccc2c1=O`, with 0.92 nM; and `C[C@]12CCC3C(CC[C@H]4C[C@@H](Cl)CC[C@]34C)C1CCC2=O` (stereo partly drawn), with 0.99 nM; and `COc1cccc2[nH]c3c(N4CCC(C)CC4)ncnc3c12`, with 2.38 nM.

Turning to `Nn1cnc2c(c1=O)C1(CCCCC1)Cc1ccccc1-2`, the PGE2 EC50 with compound was 0.81 nM. For `CN(C)c1ncc(S(=O)(=O)c2ccc(Cl)cc2)c(-c2ccccc2)n1`, the PGE2 EC50 with compound worked out at 1.08 nM. The same measure, in the same setting: the same measure for `Cc1ccc(-n2c(SCC(N)=O)nc3c(c2=O)C2(CCCC2)Cc2ccccc2-3)cc1`: 2.78 nM; for `Oc1ccc2ccccc2c1Cc1c(O)ccc2ccccc12`: 1.35 nM; for `O=S1(=O)CCN(Cc2cccc(Cl)c2)CC1`: 1.39 nM. On the same count and under the same terms, the same measure for `CCOC(=O)C1=C(CC)OC(N)=C(C#N)C1c1ccsc1` (stereo not drawn): 1.33 nM. In the case of `CCCCOC(=O)CSc1nc(N)c(C#N)c(-c2ccc(OCC)cc2)c1C#N`, the PGE2 EC50 with compound stood at 1.39 nM. Same read-out and setting: then `O=C(OCc1ccccc1Cl)c1ccccc1C(=O)c1ccccc1`, with 1.13 nM.

Turning to `CCOC(=O)c1c(NC(=O)c2ccn(CC)n2)sc2c1CCCC2`, the PGE2 EC50 with compound stood at 1.14 nM. For `Cc1ccccc1CSCC(=O)Nc1ccccc1-c1ccccc1`, the PGE2 EC50 with compound was 1.02 nM. As to `Cc1cccc(Cn2c(=O)n(Cc3ccco3)c(=O)c3ccccc32)c1`, the PGE2 EC50 with compound came to 1.13 nM. On the same count and under the same terms, the same measure for `CC1CCCCN1C(=O)/C(=C\c1ccccc1)c1ccccc1` (stereo not drawn): 2.61 nM.

Turning to `C[C@H](CCC(=O)O)[C@@H]1CC[C@@H]2[C@H]3CC[C@@H]4C[C@H](O)CC[C@@]4(C)[C@@H]3CC[C@]21C`, the PGE2 EC50 with compound worked out at 1.38 nM. Take `COc1ccc(C2CC(c3cccs3)=NN2C(=O)c2ccc(Br)o2)cc1` (stereo not drawn): the PGE2 EC50 with compound turned out to be 1.25 nM. Still for that read-out and setting: then `CC(Sc1ccc2ccccc2n1)C(=O)O` (stereo not drawn), with 3.1 nM and 3.84 nM; and `O=c1[nH]c(CSc2ncc(-c3ccc(F)cc3)n2Cc2ccco2)nc2ccccc12`, with 0.71 nM; and `CC(C)CNC(=O)C(=O)NNC(=O)c1ccco1`, with 2.49 nM. In the case of `Oc1ccc(/C=N/N(Cc2ccccc2)c2ccccc2)cc1`, the PGE2 EC50 with compound is 0.76 nM. Regarding `NC(=O)COc1ccc(C23CC4CC(CC(C4)C2)C3)cc1`, the PGE2 EC50 with compound worked out at 2.56 nM. On the same count and under the same terms, the same measure for `N#CC1(Cc2ccccc2Cl)c2ccccc2C=CN1C(=O)c1ccccc1` (stereo not drawn): 1.54 nM; for `CSc1nc(NCc2ccco2)c2ccccc2n1`: 1.3 nM; for `C/C=C/Cn1c(SCc2ccc(C)cc2)nc2c1c(=O)[nH]c(=O)n2C`: 0.78 nM. Consider `CCCCOc1ccccc1C1C(C(=O)OC)=C(C)N(C)C(C)=C1C(=O)OC`, for which the PGE2 EC50 with compound is 0.69 nM. Consider `COc1ccc(-c2noc(-c3ccccc3-c3ccccc3)n2)cc1OC`, for which the PGE2 EC50 with compound worked out at 0.31 nM.

For the compound `CCn1nnc(-c2ccccc2NC(=O)c2cc(OC)cc(OC)c2)n1`, the PGE2 EC50 with compound turned out to be 0.95 nM. Same read-out and setting: then `CSc1nnc(CSCc2ccc(Cl)cc2Cl)n1-c1ccccc1`, with 2.63 nM; and `O=C(Oc1ccc(-c2nccc(-c3ccccn3)n2)cc1)c1cccc(C(F)(F)F)c1`, with 1.44 nM.

For the origin of these results see PubChem BioAssay AID1421 (Emory University Molecular Libraries Screening Center, 2008).
